Results on one molecule are retold here after article PMC11567856, “A novel peptide‐based tau aggregation inhibitor as a potential therapeutic for Alzheimer's disease and other tauopathies” (Alzheimer's & Dementia, 2024).

Data set [1] deals with T1, Tau^Δ1‐250 (Homo sapiens, UniProt P10636).
T1 construct: Tau^Δ1‐250 (an aggregate prone truncated version of full‐length Tau); made in house; host or cells: E. coli BL21(DE3)
The data set can be described thus: Seeded Tau^Δ1‐250 aggregation with preformed filaments, no heparin. In kind it is biochemical. The following applies: Tau monomers incubated with preformed Tau^Δ1‐250 filaments, no heparin (Figure S10).

The target of data set [2] is T1, Tau^Δ1‐250. Kind of data set: TEM of aggregated Tau^Δ1‐250. In kind it is biochemical. On the procedure:
Transmission electron microscopy (TEM): Tau was aggregated in similar conditions as above. Samples (10 µL) were loaded onto Formvar/Carbon 300 mesh copper grids for 3 min. The excess sample was wicked away and then negatively stained with 10 µL of filtered 2% phosphotungstic acid, pH 2, for 2 min. Grids were examined using a JEOL JEM‐1010 transmission electron microscope and were visualized and photographed at 50,000× magnification with 80.0 kV.
(§1) FIGURE 4 Lead peptide RI‐AG03 suppresses Tau β‐sheet content and forms of off‐pathway structures. […] 20 µM RI‐AG03 was added after 0, 24, and 72 h, of Tau aggregation (hatched gray bars), or not at all (solid gray bar representing end‐point aggregation of Tau^2N4R at 9 days). Note that Tau^2N4R aggregation plateaued at ∼72 h. […] One factor repeated measures ANOVA + Tukey post hoc statistical analysis: p > 0.05, *p ≤ 0.05, **p ≤ 0.01, ***p ≤ 0.001. (C) Negative stain TEM images using a Joel JEM‐1010 after the aggregation of 20 µM Tau^Δ1‐250 for 24 h, in the absence of RI‐AG03 (left), and in the presence of 20 µM RI‐AG03 (right). (D) The area and diameter of 200 large spherical species formed in the presence of 20 µM RI‐AG03 and recorded by TEM were quantified using iTEM software. […]

In data set [3] the target is T1, Tau^Δ1‐250. Kind of data set: Circular dichroism of Tau^Δ1‐250 aggregation. The settings on record: 20 µM Tau^Δ1‐250, 20 µM RI‐AG03, aggregated 5 h; CD 180–260 nm. It is filed as biochemical. On the procedure:
Circular dichroism (CD): CD spectra were obtained using a Chirascan plus qCD spectrometer between 180 and 260 nm with a bandwidth of 1 nm and a path length of 2 mm.
as §1

In a further data set the test system is Elav/hTau^2N4R flies. Kind of data set: Drosophila survival assay, hTau^2N4R pan-neuronal. In kind it is in vivo, Drosophila melanogaster. Also noted: unit of the concentration uncertain. Here is the method: Drosophila survival assays: Elav‐GAL4 (BDSC_458) female flies were crossed with male UAS‐Tau^2N4R flies or with gender‐matched Oregon‐R (WT) flies. Survival of 10 cohorts of 10 male flies expressing hTau^2N4R pan‐neurally and reared on a diet containing 0.08 or 0.8 µM RI‐AG03 was assessed as previously described.[49] Statistics and reproducibility: Data were collected in ≥triplicate and expressed as mean ± standard error of the mean. […] This test analyzed outcomes related to the treatment effects of peptide inhibitors against Tau aggregation at multiple time points, controlling for individual variability and ensuring that changes observed were significant. For the Drosophila survival data, a Kaplan–Meier survival curve was plotted, and a Log‐rank (Mantel–Cox) test was performed on the data using GraphPad Prism software[49] This test analyzed survival outcomes by comparing survival distribution between groups, without assuming a specific distribution for survival times. AFM data were analyzed by unpaired t‐test with Welch's correction as we made the assumption, from previous similar studies, that the two populations (Tau enriched preps isolated from flies fed or not fed RI‐AG03) had the […].

Where a SMILES comes first, the peptide text is derived from it. [ ]: non-standard residue; d: D form.

T1 sequence (P10636 568-758, stated change not applied): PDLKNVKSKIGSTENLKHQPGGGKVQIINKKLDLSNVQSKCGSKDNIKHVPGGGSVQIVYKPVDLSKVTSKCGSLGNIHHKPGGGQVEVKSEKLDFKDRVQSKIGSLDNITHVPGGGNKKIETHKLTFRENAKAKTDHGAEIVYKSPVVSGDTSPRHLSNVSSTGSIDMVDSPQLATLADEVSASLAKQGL
Procedure for HEK‐293 cells: (B) LDH cytotoxicity assay using varying concentrations of RI‐AG03 co‐incubated with HEK‐293 cells. LDH Cytotoxicity (%) denotes lysed cells. Cells were seeded to a 96‐well plate at 10,000 cells/100 µL per well. […] Experiments were conducted in triplicate.

Consider `CC[C@@H](C)[C@@H](NC(=O)[C@@H](CCCCNC(C)=O)NC(=O)[C@@H](Cc1ccc(O)cc1)NC(=O)[C@@H](CCCCN)NC(=O)[C@H]1CCCN1C(=O)CNC(=O)[C@@H](CCCNC(=N)N)NC(=O)[C@@H](CCCNC(=N)N)NC(=O)[C@@H](CCCNC(=N)N)NC(=O)[C@@H](CCCNC(=N)N)NC(=O)[C@@H](CCCNC(=N)N)NC(=O)[C@@H](CCCNC(=N)N)NC(=O)[C@@H](CCCNC(=N)N)NC(=O)[C@@H](CCCNC(=N)N)NC(C)=O)C(=O)N[C@H](CCC(N)=O)C(=O)N[C@@H](C(=O)NCC(=O)N[C@H](CCCNC(=N)N)C(N)=O)C(C)C` [RI‐AG03] (Ac-[dR][dR][dR][dR][dR][dR][dR][dR]G[dP][dK][dY][dK](Ac)[dI][dQ][dV]G[dR]-NH2), for which the “effect on seeded Tau^Δ1‐250 aggregation in the absence of heparin” value at Tau^Δ1‐250 [1] is reported as “demonstrated efficacy at inhibiting seeded Tau^Δ1‐250 aggregation”. In addition, on Tau^Δ1‐250 [2] (20 µM Tau^Δ1‐250, 20 µM RI‐AG03, 24 h, TEM, 200 species quantified), the “mean diameter of large spherical structures formed with the inhibitor” value is given as roughly 36 nm. Further, the “fibrils seen by TEM” value on Tau^Δ1‐250 [2] (20 µM Tau^Δ1‐250 with heparin 24 h, equimolar (20 µM) RI‐AG03, negative stain TEM) is listed as “these fibrils were not observed”. On Tau^Δ1‐250 [3], the “CD spectral changes (random coil to secondary structure incl. β‐strands)” value is “significantly suppressed”. Further, in the data set with Elav/hTau^2N4R flies (high‐dose (0.8 µM) in diet, pan‐neuronal hTau^2N4R male flies, untreated 26 days, n = 100, p < 0.0005), the “median survival of hTau^2N4R flies, high dose” value is given as 35 days. For the same molecule, the “improvement of median survival of hTau^2N4R flies, high dose” value in the data set with Elav/hTau^2N4R flies (high‐dose (0.8 µM) in diet, versus untreated 26 days, n = 100) was found to be 35%. Also, the “median survival of hTau^2N4R flies, low dose” value in the data set on Elav/hTau^2N4R flies (low‐dose (0.08 µM) in diet, pan‐neuronal hTau^2N4R male flies, untreated 26 days, n = 100, p < 0.0005) amounted to 33 days. For the same molecule, the “improvement of median survival of hTau^2N4R flies, low dose” value in the data set on Elav/hTau^2N4R flies (low‐dose (0.08 µM) in diet, versus untreated 26 days, n = 100) stood at 27%. Besides, in the data set on HEK‐293 cells, the “concentration at which toxicity begins to increase (LDH cytotoxicity)” value stood at 40 µM and the “doses found non‐toxic (LDH cytotoxicity)” value is “up to 30 µM”.
